Assays:
[1] = biological target: Neuronal acetylcholine receptor; alpha4/beta2 (Rattus norvegicus) (UniProt P09483+P12390); assay: Displacement of [3H]NIC from alpha-4-beta-2 nAChR expressed in rat brain membrane at 100 nM
[2] = biological target: Neuronal acetylcholine receptor subunit alpha-7 (Rattus norvegicus) (UniProt Q05941); assay: Displacement of [3H]MLA from alpha-7 nAChR expressed in rat brain membrane at 100 nM
Neuronal acetylcholine receptor subunit alpha-7 (Rattus norvegicus), sequence (Q05941 whole entry): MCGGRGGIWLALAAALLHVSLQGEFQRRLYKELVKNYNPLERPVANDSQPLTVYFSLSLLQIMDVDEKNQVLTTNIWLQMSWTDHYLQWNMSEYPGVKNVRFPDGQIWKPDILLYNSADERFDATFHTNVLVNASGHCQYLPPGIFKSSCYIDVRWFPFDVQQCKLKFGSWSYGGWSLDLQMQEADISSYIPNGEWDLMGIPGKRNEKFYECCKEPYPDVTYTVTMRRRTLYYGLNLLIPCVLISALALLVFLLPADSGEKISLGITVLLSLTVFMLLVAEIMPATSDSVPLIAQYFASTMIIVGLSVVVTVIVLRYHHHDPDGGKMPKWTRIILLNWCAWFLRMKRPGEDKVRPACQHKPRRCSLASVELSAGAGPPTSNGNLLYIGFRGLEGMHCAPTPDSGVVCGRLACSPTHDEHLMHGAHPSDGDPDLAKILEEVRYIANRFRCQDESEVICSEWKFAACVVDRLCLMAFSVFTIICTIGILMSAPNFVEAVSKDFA

Row | Structure (SMILES) | inhibition [1] [%] | inhibition [2] [%]
1 | Cc1ccc[n+](CCCCCc2cccc(CCCCC[n+]3cccc(C)c3)c2)c1 | 3.5 | 6.24
2 | CN1CCC[C@H]1c1ccc[n+](CCCC#Cc2cccc(C#CCCC[n+]3cccc([C@@H]4CCCN4C)c3)c2)c1 | 3.1 | 2.6
3 | CN1CCC[C@H]1c1ccc[n+](CCCC#Cc2ccccc2C#CCCC[n+]2cccc([C@@H]3CCCN3C)c2)c1 | 72 | 9.2
4 | Cc1ccc[n+](CCC#Cc2ccc(C#CCC[n+]3cccc(C)c3)cc2)c1 | 13 | 3.1
5 | Cc1cccc[n+]1CCCC#Cc1cccc(C#CCCC[n+]2ccccc2C)c1 | 1.9 | 0
6 | Cc1cccc[n+]1CCCC#Cc1ccccc1C#CCCC[n+]1ccccc1C | 2.1 | 1.2
7 | Cc1cc[n+](CCCCc2ccc(CCCC[n+]3ccc(C)cc3)cc2)cc1 | 1.1 | 7.73
8 | CN1CCC[C@H]1c1ccc[n+](CCCCc2ccc(CCCC[n+]3cccc([C@@H]4CCCN4C)c3)cc2)c1 | 3.66 | 5.3
9 | Cc1ccc[n+](CCCC#Cc2cccc(C#CCCC[n+]3cccc(C)c3)c2)c1 | 0.5 | 8
10 | CN1CCC[C@H]1c1ccc[n+](CCCCCc2ccccc2CCCCC[n+]2cccc([C@@H]3CCCN3C)c2)c1 | 71 | 11
11 | Cc1ccc[n+](CCCCCCCCCCCC[n+]2cccc(C)c2)c1 | 0 | 0
12 | Cc1cc[n+](CCC#Cc2ccc(C#CCC[n+]3ccc(C)cc3)cc2)cc1 | 8.9 | 2.7
13 | Cc1ccc[n+](CCCC#Cc2ccccc2C#CCCC[n+]2cccc(C)c2)c1 | 3.9 | 0
14 | Cc1cccc[n+]1CCCCCc1ccccc1CCCCC[n+]1ccccc1C | 0 | 7.6
15 | Cc1cc[n+](CCCCCc2cccc(CCCCC[n+]3ccc(C)cc3)c2)cc1 | 4.6 | 3.5
16 | Cc1cc[n+](CCCCCc2ccccc2CCCCC[n+]2ccc(C)cc2)cc1 | 0 | 3.1
17 | Cc1ccc[n+](CCCCCc2ccccc2CCCCC[n+]2cccc(C)c2)c1 | 0 | 5.4
18 | Cc1ccc[n+](CCCCc2ccc(CCCC[n+]3cccc(C)c3)cc2)c1 | 4.33 | 7.41
19 | Cc1cc[n+](CCCC#Cc2ccccc2C#CCCC[n+]2ccc(C)cc2)cc1 | 2.5 | 5.4
20 | Cc1cc[n+](CCCC#Cc2cccc(C#CCCC[n+]3ccc(C)cc3)c2)cc1 | 10 | 6.4
21 | Cc1cccc[n+]1CCCCc1ccc(CCCC[n+]2ccccc2C)cc1 | 6.3 | 0.16
22 | Cc1cccc[n+]1CCCCCc1cccc(CCCCC[n+]2ccccc2C)c1 | 7.2 | 0
